Data from ChEMBL document CHEMBL1909046, “DrugMatrix in vitro pharmacology data”.

Experiments:
[1] = target: T1, Type-2 angiotensin II receptor (Homo sapiens, UniProt P50052); format: cell-based; conditions: cho-k1; note: in other assays of this panel Not Active means under 50% inhibition at 10 µM
T1 sequence (P50052 whole entry): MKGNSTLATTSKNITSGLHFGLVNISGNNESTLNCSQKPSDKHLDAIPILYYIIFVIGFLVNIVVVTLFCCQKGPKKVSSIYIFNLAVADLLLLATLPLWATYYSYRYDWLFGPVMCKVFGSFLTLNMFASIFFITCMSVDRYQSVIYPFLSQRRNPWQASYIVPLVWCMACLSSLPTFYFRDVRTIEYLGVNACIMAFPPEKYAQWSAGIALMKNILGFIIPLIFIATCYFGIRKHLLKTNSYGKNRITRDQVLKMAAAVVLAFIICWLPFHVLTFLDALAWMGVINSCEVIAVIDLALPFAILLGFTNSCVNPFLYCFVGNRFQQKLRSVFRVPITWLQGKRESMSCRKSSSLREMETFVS

[2] = target: T2, Caspase-1 (Homo sapiens, UniProt P29466); parameters: species or system Escherichia coli;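 note: Caspase-1 enzyme inhibition assay with a peptide substrate; in other assays of this panel Not Active means under 50% inhibition at 10 µM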
T2 sequence (P29466 whole entry): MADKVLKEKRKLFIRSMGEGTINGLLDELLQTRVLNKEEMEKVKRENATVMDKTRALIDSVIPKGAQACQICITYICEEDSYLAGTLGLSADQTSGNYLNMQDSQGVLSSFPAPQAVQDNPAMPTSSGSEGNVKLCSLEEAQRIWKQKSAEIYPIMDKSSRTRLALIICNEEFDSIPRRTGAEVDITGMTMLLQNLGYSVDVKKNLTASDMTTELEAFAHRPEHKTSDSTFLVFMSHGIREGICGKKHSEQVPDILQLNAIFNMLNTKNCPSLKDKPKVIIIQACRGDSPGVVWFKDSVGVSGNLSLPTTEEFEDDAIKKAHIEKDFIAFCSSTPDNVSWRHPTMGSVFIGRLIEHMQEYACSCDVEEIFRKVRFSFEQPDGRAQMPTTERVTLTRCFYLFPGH

[3] = target: Cannabinoid receptor 1 (Homo sapiens, UniProt P21554); format: cell membranes, Membrane; conditions: chem-1; note: in other assays of this panel Not Active means under 50% inhibition at 10 µM
[4] = target: Cytochrome P450 2E1 (Homo sapiens, UniProt P05181); conditions: bti-tn-5b1-4; note: in other assays of this panel Not Active means under 50% inhibition at 10 µM
[5] = DRUGMATRIX: Purinergic P2X radioligand binding (ligand: [3H] alpha, beta-Methylene-ATP); format: cell membranes, Oryctolagus cuniculus, New Zealand albino, Urinary bladder, Membrane; conditions: Not Active = under 50% inhibition at 10 µM
[6] = target: T3, Polyunsaturated fatty acid lipoxygenase ALOX15 (Oryctolagus cuniculus, UniProt P12530); assay: biochemical; format: tissue-based, Reticulocytes; conditions: reticulocytes
T3 sequence (P12530 whole entry): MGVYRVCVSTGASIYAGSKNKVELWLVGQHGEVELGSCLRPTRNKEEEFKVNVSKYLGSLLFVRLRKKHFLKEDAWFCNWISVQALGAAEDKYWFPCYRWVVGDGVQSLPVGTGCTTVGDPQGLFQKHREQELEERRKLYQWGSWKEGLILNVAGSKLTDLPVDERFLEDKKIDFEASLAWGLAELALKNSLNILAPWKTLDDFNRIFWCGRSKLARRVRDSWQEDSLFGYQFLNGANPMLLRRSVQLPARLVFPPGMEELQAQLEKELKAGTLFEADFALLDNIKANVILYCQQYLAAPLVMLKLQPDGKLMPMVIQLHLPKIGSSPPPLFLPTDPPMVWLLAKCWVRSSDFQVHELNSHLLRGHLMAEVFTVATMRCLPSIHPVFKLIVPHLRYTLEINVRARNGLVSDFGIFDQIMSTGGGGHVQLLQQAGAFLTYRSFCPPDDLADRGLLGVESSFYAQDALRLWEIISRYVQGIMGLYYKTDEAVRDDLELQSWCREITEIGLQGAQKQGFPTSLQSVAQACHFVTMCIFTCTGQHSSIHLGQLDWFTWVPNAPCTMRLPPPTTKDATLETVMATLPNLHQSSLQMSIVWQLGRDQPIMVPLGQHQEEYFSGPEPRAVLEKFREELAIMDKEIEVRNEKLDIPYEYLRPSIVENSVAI

[7] = DRUGMATRIX: ATPase, Na+/K+ enzyme inhibition (substrate: ATP); format: tissue-based, Sus scrofa, Heart; conditions: Not Active = under 50% inhibition at 10 µM
[8] = DRUGMATRIX: Calcium Channel Type L, Benzothiazepine radioligand binding (ligand: [3H] Diltiazem); format: cell membranes, Rattus norvegicus, Wistar, Brain, Membrane; conditions: Not Active = under 50% inhibition at 10 µM
[9] = DRUGMATRIX: GABAA, Flunitrazepam, Central radioligand binding (ligand: [3H] Flunitrazepam); format: cell membranes, Rattus norvegicus, Wistar, Brain, Membrane; conditions: Not Active = under 50% inhibition at 10 µM
[10] = DRUGMATRIX: Tumor Necrosis Factor (TNF), Non-Selective radioligand binding (ligand: [125I] TNF-alpha); format: cell membranes, Membrane; conditions: u-937; Not Active = under 50% inhibition at 10 µM
[11] = target: Sodium-dependent noradrenaline transporter (Homo sapiens, UniProt P23975); assay: DRUGMATRIX: Norepinephrine Transporter radioligand binding (ligand: [125I] RTI-55); format: cell membranes, MDCK, Membrane; conditions: Not Active = under 50% inhibition at 10 µM
[12] = target: Mitogen-activated protein kinase 3 (Homo sapiens, UniProt P27361); assay: DRUGMATRIX: Protein Serine/Threonine Kinase, ERK1 enzyme inhibition (substrate: Myelin Basic Protein); parameters: species or system Escherichia coli; conditions: Not Active = under 50% inhibition at 10 µM
[13] = target: Substance-P receptor (Homo sapiens, UniProt P25103); format: cell membranes, CHO, Membrane; note: in other assays of this panel Not Active means under 50% inhibition at 10 µM
[14] = target: Epidermal growth factor receptor (Homo sapiens, UniProt P00533); assay: DRUGMATRIX: Protein Tyrosine Kinase, EGF Receptor enzyme inhibition (substrate: Poly(Glu:Tyr)); format: cell-based, Insect cells; conditions: Not Active = under 50% inhibition at 10 µM
Sequence of Epidermal growth factor receptor (P00533 whole entry): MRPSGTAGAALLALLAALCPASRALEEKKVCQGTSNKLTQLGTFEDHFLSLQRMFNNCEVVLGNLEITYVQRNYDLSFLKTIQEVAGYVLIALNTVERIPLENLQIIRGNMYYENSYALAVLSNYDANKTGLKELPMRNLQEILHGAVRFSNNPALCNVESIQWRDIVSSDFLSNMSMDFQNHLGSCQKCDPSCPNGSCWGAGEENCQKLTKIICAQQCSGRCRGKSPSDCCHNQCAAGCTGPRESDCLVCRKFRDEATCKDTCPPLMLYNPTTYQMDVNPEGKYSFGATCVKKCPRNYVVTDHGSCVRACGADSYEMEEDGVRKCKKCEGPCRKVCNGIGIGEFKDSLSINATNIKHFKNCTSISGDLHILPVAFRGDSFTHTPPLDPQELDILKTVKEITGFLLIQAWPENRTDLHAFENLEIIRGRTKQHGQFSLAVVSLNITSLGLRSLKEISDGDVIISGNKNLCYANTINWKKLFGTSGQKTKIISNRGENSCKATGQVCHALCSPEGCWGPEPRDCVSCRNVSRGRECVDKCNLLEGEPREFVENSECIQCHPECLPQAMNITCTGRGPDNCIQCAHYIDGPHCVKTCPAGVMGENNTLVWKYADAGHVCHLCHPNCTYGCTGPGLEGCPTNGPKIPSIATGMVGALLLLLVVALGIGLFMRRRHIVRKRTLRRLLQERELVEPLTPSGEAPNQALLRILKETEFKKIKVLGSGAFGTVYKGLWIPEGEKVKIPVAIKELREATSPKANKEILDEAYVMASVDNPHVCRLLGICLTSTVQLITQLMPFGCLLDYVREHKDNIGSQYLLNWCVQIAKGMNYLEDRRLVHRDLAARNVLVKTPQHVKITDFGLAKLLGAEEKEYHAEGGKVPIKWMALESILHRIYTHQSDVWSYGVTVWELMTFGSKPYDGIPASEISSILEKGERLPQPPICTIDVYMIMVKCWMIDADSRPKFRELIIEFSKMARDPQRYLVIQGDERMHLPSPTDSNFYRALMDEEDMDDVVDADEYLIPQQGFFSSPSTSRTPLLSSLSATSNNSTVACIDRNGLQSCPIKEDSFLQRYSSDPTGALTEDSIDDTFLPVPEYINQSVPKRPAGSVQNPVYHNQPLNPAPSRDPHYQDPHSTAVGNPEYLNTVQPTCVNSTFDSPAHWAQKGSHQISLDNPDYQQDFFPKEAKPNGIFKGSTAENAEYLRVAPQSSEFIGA

Sequence of Cannabinoid receptor 1 (P21554 whole entry): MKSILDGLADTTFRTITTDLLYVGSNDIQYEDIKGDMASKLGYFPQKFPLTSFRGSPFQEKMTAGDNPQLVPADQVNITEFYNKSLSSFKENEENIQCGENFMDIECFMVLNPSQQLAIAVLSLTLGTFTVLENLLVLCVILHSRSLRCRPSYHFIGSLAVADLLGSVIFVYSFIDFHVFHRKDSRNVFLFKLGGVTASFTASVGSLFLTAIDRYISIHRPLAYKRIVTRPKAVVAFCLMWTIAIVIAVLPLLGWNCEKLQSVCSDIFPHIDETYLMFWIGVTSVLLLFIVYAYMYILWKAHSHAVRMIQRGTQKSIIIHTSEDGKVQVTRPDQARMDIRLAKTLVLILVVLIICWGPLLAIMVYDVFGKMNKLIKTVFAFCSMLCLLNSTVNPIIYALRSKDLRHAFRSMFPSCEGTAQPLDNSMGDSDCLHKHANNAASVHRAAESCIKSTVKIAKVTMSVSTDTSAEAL
Sequence of Cytochrome P450 2E1 (P05181 whole entry): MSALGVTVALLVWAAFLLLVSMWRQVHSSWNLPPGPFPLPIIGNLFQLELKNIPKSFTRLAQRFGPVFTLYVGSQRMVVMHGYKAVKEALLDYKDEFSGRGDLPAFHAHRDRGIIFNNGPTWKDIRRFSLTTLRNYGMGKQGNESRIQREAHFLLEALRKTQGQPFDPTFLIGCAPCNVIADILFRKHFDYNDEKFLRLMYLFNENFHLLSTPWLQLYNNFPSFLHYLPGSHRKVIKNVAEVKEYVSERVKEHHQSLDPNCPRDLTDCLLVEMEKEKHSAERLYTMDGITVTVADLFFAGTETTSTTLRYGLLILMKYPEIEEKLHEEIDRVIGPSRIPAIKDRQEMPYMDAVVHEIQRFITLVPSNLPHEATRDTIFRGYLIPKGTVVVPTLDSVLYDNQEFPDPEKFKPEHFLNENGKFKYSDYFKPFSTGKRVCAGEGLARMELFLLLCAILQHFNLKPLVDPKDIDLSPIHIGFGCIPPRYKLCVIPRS
Sequence of Substance-P receptor (P25103 whole entry): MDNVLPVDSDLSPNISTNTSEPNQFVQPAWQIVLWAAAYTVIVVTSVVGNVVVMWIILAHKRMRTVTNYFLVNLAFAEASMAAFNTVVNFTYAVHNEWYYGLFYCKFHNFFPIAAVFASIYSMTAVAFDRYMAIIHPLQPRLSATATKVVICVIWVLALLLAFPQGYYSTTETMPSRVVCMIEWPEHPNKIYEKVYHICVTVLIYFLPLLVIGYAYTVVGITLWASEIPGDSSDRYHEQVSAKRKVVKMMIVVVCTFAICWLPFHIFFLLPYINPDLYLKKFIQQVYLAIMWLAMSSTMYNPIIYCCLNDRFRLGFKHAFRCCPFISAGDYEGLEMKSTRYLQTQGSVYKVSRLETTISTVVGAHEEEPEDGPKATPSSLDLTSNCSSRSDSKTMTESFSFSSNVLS
Sequence of Mitogen-activated protein kinase 3 (P27361 whole entry): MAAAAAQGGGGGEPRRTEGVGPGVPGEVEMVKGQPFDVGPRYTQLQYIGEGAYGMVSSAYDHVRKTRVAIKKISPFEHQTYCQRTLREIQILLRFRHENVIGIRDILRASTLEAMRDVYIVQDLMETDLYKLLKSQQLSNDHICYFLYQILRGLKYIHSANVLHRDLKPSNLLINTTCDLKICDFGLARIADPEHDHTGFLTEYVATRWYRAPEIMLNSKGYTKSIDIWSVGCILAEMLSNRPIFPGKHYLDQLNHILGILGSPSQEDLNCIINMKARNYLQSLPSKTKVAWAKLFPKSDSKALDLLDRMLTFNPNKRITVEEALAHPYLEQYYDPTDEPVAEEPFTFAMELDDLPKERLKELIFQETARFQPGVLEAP
Sequence of Sodium-dependent noradrenaline transporter (P23975 whole entry): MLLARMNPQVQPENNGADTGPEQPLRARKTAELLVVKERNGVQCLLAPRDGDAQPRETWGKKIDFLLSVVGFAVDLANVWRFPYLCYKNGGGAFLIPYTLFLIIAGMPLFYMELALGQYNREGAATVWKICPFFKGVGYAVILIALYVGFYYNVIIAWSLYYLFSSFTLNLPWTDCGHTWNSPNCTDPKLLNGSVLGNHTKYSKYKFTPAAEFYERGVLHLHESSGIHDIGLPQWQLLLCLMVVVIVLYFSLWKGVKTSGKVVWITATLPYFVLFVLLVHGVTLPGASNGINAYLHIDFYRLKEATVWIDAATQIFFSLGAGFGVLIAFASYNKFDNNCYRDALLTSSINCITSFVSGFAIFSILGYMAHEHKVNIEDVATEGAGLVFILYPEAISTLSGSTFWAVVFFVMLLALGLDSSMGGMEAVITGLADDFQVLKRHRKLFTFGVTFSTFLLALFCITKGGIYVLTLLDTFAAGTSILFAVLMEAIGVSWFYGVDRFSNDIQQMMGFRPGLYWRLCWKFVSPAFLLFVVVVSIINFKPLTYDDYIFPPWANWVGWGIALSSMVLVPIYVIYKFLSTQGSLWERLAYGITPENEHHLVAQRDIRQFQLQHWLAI

O=[N+]([O-])c1cc([As](=O)(O)O)ccc1O [ROXARSONE]
Not Active: IC50 [1] | Ki [1] | IC50 [2] | Ki [2] | IC50 [3] | Ki [3] | IC50 [4] | Ki [4] | IC50 [5] | Ki [5] | IC50 [6] | Ki [6] | IC50 [7] | Ki [7] | IC50 [8] | Ki [8] | IC50 [9] | Ki [9] | IC50 [10] | Ki [10] | IC50 ([11]; mdck) | Ki ([11]; mdck) | IC50 [12] | Ki [12] | IC50 ([13]; cho) | Ki ([13]; cho) | IC50 ([14]; insect cells) | Ki ([14]; insect cells)

COc1ccc(CCN2CCC(Nc3nc4ccccc4n3Cc3ccc(F)cc3)CC2)cc1 [ASTEMIZOLE]
Not Active: IC50 [1] | IC50 [2] | IC50 [3] | IC50 [4] | Ki [4] | IC50 [6] | IC50 [12]
6.06 µM: IC50 ([14]; read-out: IC50)

O=C(CCCN1CCC(O)(c2ccc(Cl)cc2)CC1)c1ccc(F)cc1 [HALOPERIDOL]
Not Active: IC50 [1] | IC50 [2] | IC50 [3] | IC50 [4] | Ki [4] | IC50 [6] | IC50 [12] | IC50 ([13]; cho) | IC50 ([14]; insect cells)

Clc1ccccc1C(c1ccccc1)(c1ccccc1)n1ccnc1 [CLOTRIMAZOLE]
69.4 µM: IC50 ([14]; read-out: IC50)
7.94 µM: IC50 ([11]; read-out: IC50)
8.75 µM: Ki ([13]; read-out: Ki)
16 µM: IC50 ([13]; read-out: IC50)
Not Active: IC50 [1] | IC50 [2] | IC50 [3] | IC50 [4] | Ki [4] | IC50 [6] | IC50 [12]
7.87 µM: Ki ([11]; read-out: Ki)

COc1ccc(C(CN(C)C)C2(O)CCCCC2)cc1 (stereo not given) [VENLAFAXINE]
Not Active: IC50 [1] | IC50 [2] | IC50 [3] | IC50 [4] | Ki [4] | IC50 [5] | Ki [5] | IC50 [6] | IC50 [7] | Ki [7] | IC50 [8] | Ki [8] | IC50 [9] | Ki [9] | IC50 [10] | Ki [10] | IC50 [12] | IC50 ([13]; cho) | IC50 ([14]; insect cells)

COc1cccc(C2(O)CCCCC2CN(C)C)c1 (stereo not given) [TRAMADOL]
Not Active: IC50 [1] | IC50 [2] | IC50 [3] | IC50 [4] | Ki [4] | IC50 [6] | IC50 [12] | IC50 ([13]; cho) | IC50 ([14]; insect cells)
